Measurements reported in ChEMBL document CHEMBL3885881, “DrugMatrix”.

Organism: Rattus norvegicus
Test: DrugMatrix - Regimen: Daily Repeat
Format: toxicity, organism-based, Sprague-Dawley
Set-up: regimen Daily Repeat, gender Male, age 6-8 weeks
Conditions: in vivo, po, route oral GAVAGE, […]; for ABSOLUTE BASOPHIL / ABSOLUTE EOSINOPHIL / ABSOLUTE LYMPHOCYTE / ABSOLUTE MONOCYTE / ABSOLUTE SEGMENTED NEUTROPHIL / BASOPHIL / EOSINOPHIL / ERYTHROCYTE COUNT / HEMATOCRIT / HEMOGLOBIN / LEUKOCYTE COUNT / LYMPHOCYTE / MEAN CORPUSCULAR HEMOGLOBIN / MEAN CORPUSCULAR HEMOGLOBIN CONCENTRATION / MEAN CORPUSCULAR VOLUME / MONOCYTE / NEUTROPHIL / NUCLEATED RED BLOOD CELLS / PLATELET COUNT: tissue Blood; for ALANINE AMINOTRANSFERASE / ALBUMIN / ALKALINE PHOSPHATASE / ASPARTATE AMINOTRANSFERASE / BLOOD UREA NITROGEN / CARBON DIOXIDE / CHLORIDE / CHOLESTEROL / CREATINE PHOSPHOKINASE / CREATININE / GLUCOSE / LACTATE DEHYDROGENASE / LIPASE / PHOSPHORUS / POTASSIUM / SODIUM / TOTAL BILIRUBIN / TOTAL PROTEIN / URIC ACID: tissue Plasma
[1] = 100 mg/kg, 120 h, dose level Low, time 5 day
[2] = 750 mg/kg, 72 h, dose level High, time 3 day
[3] = 750 mg/kg, 120 h, dose level High, time 5 day

## CCn1cc(C(=O)O)c(=O)c2cc(F)c(N3CCNCC3)nc21 [ENOXACIN]
[1]
  ABSOLUTE BASOPHIL: 0 CELLS/uL
  ABSOLUTE EOSINOPHIL: 262.67 CELLS/uL
  ABSOLUTE LYMPHOCYTE: 12714 CELLS/uL
  ABSOLUTE MONOCYTE: 457 CELLS/uL
  ABSOLUTE SEGMENTED NEUTROPHIL: 1799.67 CELLS/uL
  BASOPHIL: 0%
  EOSINOPHIL: 1.33%
  ERYTHROCYTE COUNT: 5.43 x10E6/uL
  HEMATOCRIT: 34.07%
  HEMOGLOBIN: 13.27 G/DL
  LEUKOCYTE COUNT: 15.23 x10E3/uL
  LYMPHOCYTE: 83.33%
  MEAN CORPUSCULAR HEMOGLOBIN: 24.4 pg
  MEAN CORPUSCULAR HEMOGLOBIN CONCENTRATION: 38.93 G/DL
  MEAN CORPUSCULAR VOLUME: 62.67 fL
  MONOCYTE: 3%
  NEUTROPHIL: 12.33%
  NUCLEATED RED BLOOD CELLS: 0 /100WBC
  PLATELET COUNT: 958 x10E3/uL
  ALANINE AMINOTRANSFERASE: 51.33 u/L
  ALBUMIN: 4.1 G/DL
  ALKALINE PHOSPHATASE: 295.33 u/L
  ASPARTATE AMINOTRANSFERASE: 76.33 u/L
  BLOOD UREA NITROGEN: 14.33 mg/dL
  CARBON DIOXIDE: 23 mmol/L
  CHLORIDE: 101 MEQ/L
  CHOLESTEROL: 78.33 mg/dL
  CREATINE PHOSPHOKINASE: 454 u/L
  CREATININE: 0.19 mg/dL
  GLUCOSE: 186.67 mg/dL
  LACTATE DEHYDROGENASE: 187 u/L
  LIPASE: 6.33 u/L
  PHOSPHORUS: 12.27 mg/dL
  POTASSIUM: 6.41 MEQ/L
  SODIUM: 140.57 MEQ/L
  TOTAL BILIRUBIN: 0.13 mg/dL
  TOTAL PROTEIN: 5.9 G/DL
  URIC ACID: 1.2 mg/dL
[2]
  ABSOLUTE BASOPHIL: 0 CELLS/uL
  ABSOLUTE EOSINOPHIL: 0 CELLS/uL
  ABSOLUTE LYMPHOCYTE: 12588.33 CELLS/uL
  ABSOLUTE MONOCYTE: 501.33 CELLS/uL
  ABSOLUTE SEGMENTED NEUTROPHIL: 1877 CELLS/uL
  BASOPHIL: 0%
  EOSINOPHIL: 0%
  ERYTHROCYTE COUNT: 5.55 x10E6/uL
  HEMATOCRIT: 34.83%
  HEMOGLOBIN: 13.57 G/DL
  LEUKOCYTE COUNT: 14.97 x10E3/uL
  LYMPHOCYTE: 84.33%
  MEAN CORPUSCULAR HEMOGLOBIN: 24.47 pg
  MEAN CORPUSCULAR HEMOGLOBIN CONCENTRATION: 38.93 G/DL
  MEAN CORPUSCULAR VOLUME: 62.87 fL
  MONOCYTE: 3.33%
  NEUTROPHIL: 12.33%
  NUCLEATED RED BLOOD CELLS: 0 /100WBC
  PLATELET COUNT: 1299.33 x10E3/uL
  ALANINE AMINOTRANSFERASE: 54 u/L
  ALBUMIN: 3.8 G/DL
  ALKALINE PHOSPHATASE: 389 u/L
  ASPARTATE AMINOTRANSFERASE: 64.33 u/L
  BLOOD UREA NITROGEN: 14.67 mg/dL
  CARBON DIOXIDE: 24.67 mmol/L
  CHLORIDE: 101.67 MEQ/L
  CHOLESTEROL: 66.33 mg/dL
  CREATINE PHOSPHOKINASE: 317.67 u/L
  CREATININE: 0.12 mg/dL
  GLUCOSE: 181.33 mg/dL
  LACTATE DEHYDROGENASE: 80.33 u/L
  LIPASE: 10 u/L
  PHOSPHORUS: 9.8 mg/dL
  POTASSIUM: 5.81 MEQ/L
  SODIUM: 140.9 MEQ/L
  TOTAL BILIRUBIN: 0.1 mg/dL
  TOTAL PROTEIN: 5.63 G/DL
  URIC ACID: 1.27 mg/dL
[3]
  ABSOLUTE BASOPHIL: 0 CELLS/uL
  ABSOLUTE EOSINOPHIL: 145 CELLS/uL
  ABSOLUTE LYMPHOCYTE: 12773 CELLS/uL
  ABSOLUTE MONOCYTE: 466 CELLS/uL
  ABSOLUTE SEGMENTED NEUTROPHIL: 1749.33 CELLS/uL
  BASOPHIL: 0%
  EOSINOPHIL: 1%
  ERYTHROCYTE COUNT: 5.4 x10E6/uL
  HEMATOCRIT: 33.53%
  HEMOGLOBIN: 13.27 G/DL
  LEUKOCYTE COUNT: 15.13 x10E3/uL
  LYMPHOCYTE: 84.33%
  MEAN CORPUSCULAR HEMOGLOBIN: 24.57 pg
  MEAN CORPUSCULAR HEMOGLOBIN CONCENTRATION: 39.6 G/DL
  MEAN CORPUSCULAR VOLUME: 62.07 fL
  MONOCYTE: 3%
  NEUTROPHIL: 11.67%
  NUCLEATED RED BLOOD CELLS: 0 /100WBC
  PLATELET COUNT: 1091.67 x10E3/uL
  ALANINE AMINOTRANSFERASE: 57.67 u/L
  ALBUMIN: 4.03 G/DL
  ALKALINE PHOSPHATASE: 396.33 u/L
  ASPARTATE AMINOTRANSFERASE: 69.67 u/L
  BLOOD UREA NITROGEN: 12.67 mg/dL
  CARBON DIOXIDE: 24 mmol/L
  CHLORIDE: 101.33 MEQ/L
  CHOLESTEROL: 61.33 mg/dL
  CREATINE PHOSPHOKINASE: 482.67 u/L
  CREATININE: 0.16 mg/dL
  GLUCOSE: 207 mg/dL
  LACTATE DEHYDROGENASE: 141 u/L
  LIPASE: 6.67 u/L
  PHOSPHORUS: 13.2 mg/dL
  POTASSIUM: 5.17 MEQ/L
  SODIUM: 141.5 MEQ/L
  TOTAL BILIRUBIN: 0.13 mg/dL
  TOTAL PROTEIN: 5.8 G/DL
  URIC ACID: 1.5 mg/dL
